Data on 1 compound can be found in BindingDB's records for doi:10.1021/jm050499d (University of Zürich, 2005).

The nature of this assay: Predicted binding affinity for beta secretase by linear interaction energy continuum electrostatics.

As for `COCCCNC(=O)c1cc(NC(=O)Nc2cc(C(F)(F)F)cc(C(F)(F)F)c2)ccc1N(C)C` [5-[3-(3,5-Bis-trifluoromethyl-phenyl)-ureido]-2-dimethylamino-N-(3-methoxy-propyl)-benzamide], the Ki was 9.4 µM.
